Assay results reported in patent US10725042B2, “Methods of diagnosing and treating cancer” (Case Western Reserve University, priority 2012, dated 2020).

Assays:
[1] = test system: A549 lung cancer xenografts; test: A549 xenograft tumors in nude mice; format: in vivo; settings: A549 tumours; pemetrexed 150 mg/kg, MX 4 mg/kg, i.p. daily for 5 days
Protocol: (§1) H460 or A549 tumor cells (5×10^6) were injected into bilateral flanks of female athymic NCr (nu/nu) mice (6 weeks old). When the tumor volumes reached 100-150 mm3, mice were divided into control and treatment groups (6-9 mice/group). Nude mice carrying tumors were treated with pemetrexed (150 mg/kg) alone, MX (4 mg/kg) alone or the combination of the two agents, by daily intraperitonial injection (i.p.) for 5 consecutive days. Tumor measurements were taken every 2 days. Tumor responses were quantified by tumor volume.

[2] = test system: UDG−/− cells; test: Replication foci stained with CldU and IdU, UDG−/− cells; format: cell-based, human; settings: pemetrexed 25 nM, n=10 cells
Protocol: DNA replication sites were visualized by incorporation of chlorodeoxyuridine (CldU) and iododeoxyuridine (IdU) into DNA. UDG^−/− and UDG^+/+ cells were labeled with 100 μM CldU (ICN, Irvine, Calif.) or IdU (Sigma Chemical Co., St. Louis, Mo.) for 45 min at different time intervals. Cells were washed with PBS, fixed with cold 70% ethanol, and stored at 4° C. For antibody staining, the ethanol was removed, and 100% methanol was added for 5 min. Cells were washed twice with PBS and incubated with 1.5 M HCl for 30 min to denature the DNA. Cells were washed with PBS, permeabilized with 0.5% Tween 20 in PBS for 5 min, and then incubated in 5% BSA (Sigma Chemical Co.) and in PBS for 20 min to reduce nonspecific binding. Primary antibodies CldU (rat anti-BrdU; Accurate Chemical and Science Co., Westbury, N.Y.) and IdU (mouse anti-BrdU; BD Biosciences) were diluted in 1% BSA buffer, added to the slides, and incubated in a humid environment for 2 hrs. Slides were washed with PBS-Tween 20 and then in a high-salt buffer (200 mM NaCl, 0.2% Tween 20, and 0.2% NP-40 in PBS) for 15 min. The samples were incubated with secondary antibodies for 1 h. Finally, slides were washed with PBSTween 20, mounted with Vectashield antifade mounting medium (Vector Laboratories, Inc., Burlingame, Calif.), and stored at 4° C. […] Fluorescence density of CldU or IdU was quantified by NIH image J software.

[3] = test system: AP sites in DNA of UDG−/− cells; test: AP site assay (ARP), UDG−/− cells; format: cell-based, human; settings: pemetrexed 0-400 nM, 24 hrs
Protocol: The number of AP sites was measured using ARP (aldehyde reactive probe) reagent. The assay was performed as previously described. Briefly, cells (2×10^6) were collected after drug treatment and DNA was extracted. DNA (10 μg) was incubated with 15 μl of 1 mM ARP (Dojindo Laboratories, Kumamoto, Japan), and then precipitated and washed with ice-cold ethanol. The ARP-labeled DNA was then heat-denatured at 100° C. for 5 min, quickly chilled on ice and mixed with an equal volume of 2 M ammonium acetate. The DNA was then immobilized on a BA-S 85 nitrocellulose membrane (Schleicher and Schuell, Dassel, Germany) using a minifold II vacuum filter device (Schleicher and Schuell, Dassel, Germany). The membrane was incubated with 0.25% BSA-PBS containing streptavidin-conjugated horseradish peroxidase (BioGenex, SanRamon, Calif.) at room temperature for 40 min with gentle shaking. ARP-labeled AP sites were visualized by chemiluminescence (Amersham Corp, Piscataway, N.J.) followed by quantitative densitometry using NIH Image J software.

[4] = test system: H1975 66 shUNG tumors; test: H1975 66 shUNG xenografts in NOD-SCID mice; format: in vivo
Protocol: Tumor cells in early passage (5×10^6) were injected into bilateral flanks of female NODSCID mice (6 weeks old). When tumor volumes reached 100 mm3, mice were divided into control (n=4) and treatment (n=6) groups. Mice bearing tumors were treated with pemetrexed (150 mg/kg) or 100 μl sterile PBS (control) by daily intraperitoneal injection (IP) for 5 consecutive days. Tumor measurements were taken every 2 days and response was quantified by tumor volume.

[5] = test system: H1299/PR-2 cells; test: Colony survival assay, H1299/PR-2 pemetrexed-resistant subline; format: cell-based, human; settings: PR-2 vs H1299 parental
Protocol: (§2) For cells in suspension, colony survival was determined by crystal violet staining of colonies formed after 10-day exposure of 5×10^3 cells to pemetrexed in soft agar. For adherent cells, colony survival was determined by methylene blue staining of colonies formed after 10-day exposure of 100 cells to pemetrexed in 6-well culture dishes. Only colonies containing ≥50 cells were counted. Data points represent percent of colonies relative to untreated control averaged over 3 experiments.
H1299 cells were exposed to step-wise increasing concentrations of pemetrexed over a period of 4 months. UNG expression was monitored in the bulk population at 2, 8, 12 and 16 weeks prior to administration of the induction dosage and at 24 weeks in a population of bulk chronically exposed cells that had been without pemetrexed for 8 weeks. H1299 cells capable of growth in 50 nM pemetrexed selection pressure were subcloned by limiting dilution in 96 well plates. Independent sublines were designated H1299/PR-1 and H1299/PR-2.

[6] = test system: H460 xenografts; test: H460 xenograft tumors in nude mice; format: in vivo; settings: pemetrexed 150 mg/kg, MX 4 mg/kg, i.p. daily for 5 days
Protocol: as §1

[7] = test system: H1975 66 shUNG cells; test: Colony survival assay, H1975 66 shUNG cells; format: cell-based, human
Protocol: as §2
UNG directed shRNA and siRNA plasmids were purchased from Origene. Transfection was carried out according to manufacturer specifications. Stably transfected clones (shRNA) were selected with puromycin with subsequent expansion of a well-isolated colony of cells.

Nc1nc2[nH]cc(CCc3ccc(C(=O)N[C@@H](CCC(=O)O)C(=O)O)cc3)c2c(=O)[nH]1 [pemetrexed]
antitumour activity [1]: moderately sensitive
ratio of IdU to CldU (fluorescence density) ([2]; 6-hr sample): 0.1±0.04
ratio of IdU to CldU (fluorescence density) ([2]; 18-hr sample): 0.01±0.005
AP sites in DNA [3]: lack of detectable AP sites
tumors smaller than untreated controls ([4]; H1975 66 shUNG tumors, day 20, pemetrexed 150 mg/kg IP x5): 55.6%
tumor quadrupling time ([4]; H1975 shUNG tumors, pemetrexed 150 mg/kg IP, 5 daily injections): 13.67 ± 0.28 days
relative resistance to pemetrexed compared to parental cells [5]: 71 fold
antitumour activity ([6]; H460 tumours): moderately sensitive
mean tumour volume ([6]; H460 xenografts at 15 days, PBS control 2100±106): 1726±176 mm3
sensitivity of shRNA targeted H1975 clones compared to parental cells ([7]; H1975 shUNG clones vs parental): > 5 fold
IC50 ([7]; Homo sapiens, NCI-H1975, H1975 66 shUNG, colony survival, read-out: pemetrexed IC50): 131 nM
